The results in this text go back to PubChem BioAssay (NCI).

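Briefly, cells in 96-well plates were exposed to five compound concentrations for 48 h, and endpoints were estimated by linear interpolation. GI50 is the concentration that inhibits growth by half. TGI is the concentration that stops growth completely.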

What all share (experiment): DTP human tumour cell line panel, 48 h
For assay [1], the system named is NCI-H522 lung.
The test system of assay [2] is NCI-H23 lung.
Assay [3] deals with MOLT-4 leukemia.
Assay [4] concerns SF-295 CNS.
Assay [5] deals with DU-145 prostate.
In assay [6] the test system is NCI-H460 lung.
In assay [7] the test system is HS 578T breast.
For assay [8], the system named is HL-60(TB) leukemia.
The test system of assay [9] is A498 renal.
For assay [10], the system named is MDA-MB-231 breast.

Take `CS(=O)(=O)c1ccc(Nc2nc(N[C@H]3CCCC[C@H]3N)nc3cc[nH]c(=O)c23)cc1`: the GI50 (as a rule, the concentration giving 50% growth inhibition) in assay [1] is 0.268 µM; in [2], 1.58 µM; in assay [3], 2.95 µM; in [4], 1.91 µM; in assay [5], 2.03 µM; in [6], 2.62 µM. Further, the GI50 in [7] was 1.25 µM; in assay [8], 0.533 µM; in assay [9], 3.31 µM; in [10], 2.81 µM. Besides, the TGI (commonly the concentration giving total growth inhibition) in assay [1] was 1.72 µM; in assay [2], 6.01 µM; in assay [3], 17.5 µM; in [4], 5.84 µM; in assay [5], 10.4 µM; in assay [6], 11.5 µM. Moreover, the TGI came to 4.95 µM in [7], 6.6 µM in [8], 12.4 µM in assay [9] and 16.3 µM in [10].

Turning to `COc1cccc2cc(N(C)c3nc(C)nc4c3CCC4)ccc12`, the GI50 in [1], in assay [2], in assay [3], in assay [4], in [5] and in [6] was less than 0.01 µM in each case. Also, the GI50 in assay [7], in [8], in assay [9] and in assay [10] was less than 0.01 µM in each case. The TGI in [1] was less than 0.01 µM; in assay [2], 18 µM; in assay [3] it was 16.1 µM; in assay [4], 12.5 µM; in assay [5], 12 µM; in [6], 12.4 µM. For the same compound, the TGI in [7] came out at 30 µM; in assay [8], 0.0103 µM; in assay [9], 14.7 µM; in assay [10], 14.7 µM.

With `CC(C)OC(=S)Nc1ccc(Cl)c(/C=N/OC(C)(C)C)c1`, the TGI in [1] was determined as 30.8 µM; in assay [2], 39.4 µM; in assay [3] it was 30.8 µM; in assay [4], 18.6 µM; in assay [5], 17.6 µM; in assay [6], 33.1 µM. For the same compound, the TGI in assay [7] worked out at 38.6 µM; in assay [8], 37.8 µM; in [9], 28.2 µM; in assay [10] it was 31.5 µM.

For `Cc1cc(C)c(C#N)c(Sc2nc(C)c([N+](=O)[O-])c(C)c2C#N)n1`, the GI50 in [2] was 2.87 µM; in assay [3], 3.03 µM; in assay [4] it was 14.2 µM; in assay [5] it was 2.95 µM; in assay [6] it was 3.63 µM; in assay [7], 2.44 µM. Also, the GI50 in assay [8] was 2.63 µM; in assay [9] it was 13.1 µM; in assay [10], 4.7 µM. Also, the TGI in [2] was 10.4 µM; in assay [3] it was more than 100 µM; in [4], 59.4 µM; in assay [5], 11.1 µM; in [6], 16.2 µM; in assay [7], 8.51 µM. Further, the TGI in assay [8] turned out to be 7.34 µM; in assay [9] it was 27 µM; in [10] it was 51 µM.

With `COc1ccc(-c2nc(-c3nc4ccc(C)cc4[nH]3)cc3c2[nH]c2ccccc23)cc1`, the GI50 in assay [1] was 4.39 µM; in assay [2], 5.36 µM; in assay [3], 2.31 µM; in assay [5], 5.02 µM; in assay [6], 2.99 µM; in assay [7] it was 4.94 µM. Further, the GI50 in assay [8] is 4.11 µM; in [9], 2.36 µM; in assay [10], 6.88 µM. Also, the TGI in assay [1] was 42.1 µM; in [2], more than 100 µM; in assay [3], 10 µM; in assay [5], more than 100 µM; in [6] it was more than 100 µM; in [7] it was more than 100 µM. Further, the TGI in assay [8] was 37.7 µM; in assay [9] it was more than 100 µM; in assay [10], more than 100 µM.

For `COC(=O)c1c(-c2cccs2)oc(-c2cccs2)c1C(=O)OC`, the GI50 was 25.5 µM in assay [1]; 29.6 µM in assay [2]; 19.4 µM in assay [4]; more than 100 µM in assay [5]; 33.1 µM in assay [6]; 35.8 µM in [7]. The values for the GI50 in [8], in [9] and in [10] were 79.9 µM, 31.8 µM and 34 µM, respectively. The TGI was 69.7 µM in assay [1]; 97.7 µM in assay [2]; 51.8 µM in assay [4]; more than 100 µM in [5]; more than 100 µM in [6]; more than 100 µM in [7]. For the same compound, the values for the TGI in [8], in assay [9] and in [10] were more than 100 µM, 94.4 µM and more than 94.5 µM, respectively.

`C=C1C(O)C2CC(C)(CO)C(=O)C2=C(CC(C)C)C12CC2` (stereo not drawn): the GI50 in assay [1] was 68.4 µM; in assay [2], more than 100 µM; in assay [3] it was 81.8 µM; in [4], 57.1 µM; in assay [5] it was 86.4 µM; in assay [6] it was 67 µM. The GI50 in assay [7], in assay [9] and in [10] was more than 100 µM throughout. Besides, the TGI in assay [1], in [2], in [3], in assay [4], in assay [5] and in [6] was more than 100 µM throughout. Also, the TGI in assay [7], in assay [9] and in assay [10] was more than 100 µM each time.

Take `CCCCC#Cc1c(I)n(C)c(=O)[nH]c1=O`: the GI50 in assay [1] is 1.56 µM; in [2], 2.14 µM; in assay [3], 2.73 µM; in [4], 10.6 µM; in assay [5], 4.42 µM; in assay [6] it was 20.1 µM. Also, the results for the GI50 in assay [7], in assay [9] and in assay [10] were 2.61 µM, 18.7 µM and 2.06 µM, respectively. The TGI worked out at 3.25 µM in assay [1]; 4.43 µM in assay [2]; 13.9 µM in assay [3]; 22.7 µM in [4]; 15.4 µM in assay [5]; 39.7 µM in assay [6]. The TGI in assay [7] was 7.16 µM; in [9] it was 32.7 µM; in assay [10], 4.27 µM.

As for `CN1Cc2ccccc2/C=C\c2ccccc21`, the TGI in assay [1], in [2], in assay [4], in assay [5], in assay [6] and in assay [7] was more than 100 µM each time. The TGI in [9] and in [10] was more than 100 µM throughout.
